Values of other authors, collected in patent US20210315249A1, “Cannabis-Infused Product with Controlled Cannabinoid Profile User Experience” (HEXO […]., priority 2018, published 2021).
Where two headings read alike, the source gives them in different places.

Experiments:
[1] = dogs; emulsion droplet size 119 nm or 52 nm
[2] = rats; solution in MCT oil or emulsion with droplet size 160 nm or 710 nm

| Compound | bioavailability [1] | bioavailability [2] |
| --- | --- | --- |
| CCCCN(CCCC)CCC(O)c1cc2c(Cl)cc(Cl)cc2c2cc(C(F)(F)F)ccc12 (centres unmarked) [halofantrine] | comparable bioavailability |  |
| COc1nc(C(Cl)(Cl)Cl)c(Cl)c(OC)c1Cl [penclomedine] |  | comparable bioavailability |
